Measurements: US20210000806A1, “COMPOSITIONS AND METHODS FOR TREATING INFLAMMATORY BOWEL DISEASE AND FUSOBACTERIA-CAUSED OR RELATED DISEASES AND CONDITIONS” (priority 2018, published 2021)

Assays:
ulcerative colitis = assay: Case report: patient with ulcerative colitis (pancolitis) treated with secnidazole, rifampicin and doxycycline; assay type: in vivo, human; conditions: patient history before the antibiotic combination
Method: A patient with a 12 year history of ulcerative colitis presented with 4-15 diarrhoeal stools every day and 2-3 at night.
They were commenced on secnidazole (400 mg three times daily) combined with rifampicin (increasing from 150 mg twice daily to 300 mg twice daily after four weeks), together with doxycycline (50 mg twice daily).
They then continued on the same regimen a further six months when a colonoscopy was repeated.

[1] = system: inflammatory bowel disease (IBD); assay: Inventor's clinical experience with higher-dose rifaximin in colitis / IBD; assay type: in vivo, human
Description: Current doses are almost always an under-dosing with rifaximin; and there is no external dose reference or independent dose ranging study in colitis to be guided by.

Row | Structure (SMILES) | response to previous anti-inflammatory medications (ulcerative colitis) | inhibiting inflammation by inhibiting the infection(s) ([1]; higher dose spread over 3 doses/day (3.3 g per day) versus current recommended doses (550 mg twice daily)) | remission with rifaximin alone ([1]; only using the higher and more frequent dosing)
1 | Cn1cnc([N+](=O)[O-])c1Sc1ncnc2nc[nH]c12 [azathioprine] | not achieving more than a transient response |  | 
2 | Nc1ccc(O)c(C(=O)O)c1 [mesalazine] | not achieving more than a transient response |  | 
3 | C[C@]12C=CC(=O)C=C1CC[C@@H]1[C@@H]2C(=O)C[C@@]2(C)[C@H]1CC[C@]2(O)C(=O)CO [prednisone] | not achieving more than a transient response |  | 
4 | CO[C@H]1/C=C/O[C@@]2(C)Oc3c(C)c(O)c4c(O)c(c5c(nc6cc(C)ccn65)c4c3C2=O)NC(=O)/C(C)=C\C=C\[C@H](C)[C@H](O)[C@@H](C)[C@@H](O)[C@@H](C)[C@H](OC(C)=O)[C@@H]1C [rifaximin] |  | works far better | can be used to achieve remission
